Columns and labels:
Histamine H1 receptor = Histamine H1 receptor (Homo sapiens, UniProt P35367); assay: Displacement of [3H]pyrilamine from human histamine H1 receptor expressed in CHO-K1 cells; format: cell-based
Histamine H4 receptor = Histamine H4 receptor (Homo sapiens, UniProt Q9H3N8); assay: Displacement of [3H]histamine from human histamine H4 receptor expressed in Sf9 cells
D(2) dopamine receptor = D(2) dopamine receptor (Homo sapiens, UniProt P14416); assay: Displacement of [3H]spiperone from human dopamine D2short receptor expressed in CHO-K1 cells; format: cell-based
D(1A) dopamine receptor = D(1A) dopamine receptor (Homo sapiens, UniProt P21728); assay: Displacement of [3H]SCH23390 from human dopamine D1 receptor expressed in HEK cells; format: cell-based, HEK293
D(1B) dopamine receptor = D(1B) dopamine receptor (Homo sapiens, UniProt P21918); assay: Displacement of [3H]SCH23390 from human dopamine D5 receptor expressed in HEK cells; format: cell-based, HEK293
Histamine H3 receptor = Histamine H3 receptor (Homo sapiens, UniProt Q9Y5N1); assay: Displacement of [3H]Nalpha-methylhistamine from human recombinant histamine H3 receptor expressed in HEK-293 cells; format: cell-based, HEK293
D(3) dopamine receptor = D(3) dopamine receptor (Homo sapiens, UniProt P35462); assay: Displacement of [3H]spiperone from human dopamine D3 receptor expressed in CHO-K1 cells; format: cell-based
Sequence of D(3) dopamine receptor (P35462 whole entry): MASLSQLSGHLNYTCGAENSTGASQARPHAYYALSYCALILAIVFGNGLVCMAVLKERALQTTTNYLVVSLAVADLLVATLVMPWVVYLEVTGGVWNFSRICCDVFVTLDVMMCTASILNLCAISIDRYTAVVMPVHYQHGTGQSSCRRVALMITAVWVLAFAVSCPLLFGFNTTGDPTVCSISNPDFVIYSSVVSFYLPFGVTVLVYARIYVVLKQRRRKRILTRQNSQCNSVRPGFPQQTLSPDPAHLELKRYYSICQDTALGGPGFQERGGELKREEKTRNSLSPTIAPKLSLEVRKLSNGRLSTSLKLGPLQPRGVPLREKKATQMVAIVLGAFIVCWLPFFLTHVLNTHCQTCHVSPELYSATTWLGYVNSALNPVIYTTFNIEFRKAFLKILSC

Sequence of D(1A) dopamine receptor (P21728 whole entry): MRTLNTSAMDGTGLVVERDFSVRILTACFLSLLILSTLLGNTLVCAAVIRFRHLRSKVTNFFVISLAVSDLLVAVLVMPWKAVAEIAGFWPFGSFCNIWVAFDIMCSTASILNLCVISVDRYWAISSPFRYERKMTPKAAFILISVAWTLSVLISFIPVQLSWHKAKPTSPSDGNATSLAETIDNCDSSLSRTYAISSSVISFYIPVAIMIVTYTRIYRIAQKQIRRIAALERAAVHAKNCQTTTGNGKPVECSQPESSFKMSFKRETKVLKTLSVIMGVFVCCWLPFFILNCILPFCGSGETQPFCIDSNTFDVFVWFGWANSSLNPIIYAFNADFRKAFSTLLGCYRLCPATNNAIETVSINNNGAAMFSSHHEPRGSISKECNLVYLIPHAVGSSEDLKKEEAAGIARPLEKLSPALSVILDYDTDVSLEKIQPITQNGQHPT
Sequence of D(2) dopamine receptor (P14416 whole entry): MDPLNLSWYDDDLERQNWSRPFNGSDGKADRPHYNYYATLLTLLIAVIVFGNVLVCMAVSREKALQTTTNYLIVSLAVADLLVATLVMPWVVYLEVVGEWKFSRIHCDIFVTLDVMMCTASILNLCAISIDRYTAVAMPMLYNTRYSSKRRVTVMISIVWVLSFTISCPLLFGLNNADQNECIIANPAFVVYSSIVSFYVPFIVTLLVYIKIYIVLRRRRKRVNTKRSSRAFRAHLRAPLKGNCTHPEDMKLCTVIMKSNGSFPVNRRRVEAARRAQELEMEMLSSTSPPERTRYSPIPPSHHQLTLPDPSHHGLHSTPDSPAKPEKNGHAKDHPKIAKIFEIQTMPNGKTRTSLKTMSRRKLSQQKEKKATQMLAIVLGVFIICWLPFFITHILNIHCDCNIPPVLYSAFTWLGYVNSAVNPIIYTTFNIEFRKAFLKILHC
Sequence of D(1B) dopamine receptor (P21918 whole entry): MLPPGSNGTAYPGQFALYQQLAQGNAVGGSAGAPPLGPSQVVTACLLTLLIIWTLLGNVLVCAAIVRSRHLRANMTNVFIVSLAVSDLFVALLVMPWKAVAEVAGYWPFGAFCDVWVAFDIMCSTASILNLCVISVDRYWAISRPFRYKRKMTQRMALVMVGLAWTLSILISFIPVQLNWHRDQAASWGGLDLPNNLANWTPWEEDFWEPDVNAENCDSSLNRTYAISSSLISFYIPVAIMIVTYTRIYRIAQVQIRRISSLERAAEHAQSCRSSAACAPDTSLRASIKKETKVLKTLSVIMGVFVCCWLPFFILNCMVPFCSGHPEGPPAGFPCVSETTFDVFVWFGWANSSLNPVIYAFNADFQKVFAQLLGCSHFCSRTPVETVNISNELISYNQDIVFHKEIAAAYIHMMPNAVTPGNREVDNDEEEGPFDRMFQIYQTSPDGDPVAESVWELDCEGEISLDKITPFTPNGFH
Sequence of Histamine H1 receptor (P35367 whole entry): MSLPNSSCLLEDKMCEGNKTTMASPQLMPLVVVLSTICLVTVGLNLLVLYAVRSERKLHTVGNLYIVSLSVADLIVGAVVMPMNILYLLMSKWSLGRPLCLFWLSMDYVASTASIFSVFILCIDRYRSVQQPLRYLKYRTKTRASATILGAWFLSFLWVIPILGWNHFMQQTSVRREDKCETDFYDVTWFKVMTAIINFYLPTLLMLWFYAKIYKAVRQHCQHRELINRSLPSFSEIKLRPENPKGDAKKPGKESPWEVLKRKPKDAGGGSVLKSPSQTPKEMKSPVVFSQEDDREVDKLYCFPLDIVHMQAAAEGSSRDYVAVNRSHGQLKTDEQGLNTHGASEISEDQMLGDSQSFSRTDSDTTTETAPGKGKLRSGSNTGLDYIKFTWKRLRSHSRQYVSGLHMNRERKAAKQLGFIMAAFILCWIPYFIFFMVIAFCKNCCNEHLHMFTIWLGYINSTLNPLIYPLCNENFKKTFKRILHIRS
Sequence of Histamine H3 receptor (Q9Y5N1 whole entry): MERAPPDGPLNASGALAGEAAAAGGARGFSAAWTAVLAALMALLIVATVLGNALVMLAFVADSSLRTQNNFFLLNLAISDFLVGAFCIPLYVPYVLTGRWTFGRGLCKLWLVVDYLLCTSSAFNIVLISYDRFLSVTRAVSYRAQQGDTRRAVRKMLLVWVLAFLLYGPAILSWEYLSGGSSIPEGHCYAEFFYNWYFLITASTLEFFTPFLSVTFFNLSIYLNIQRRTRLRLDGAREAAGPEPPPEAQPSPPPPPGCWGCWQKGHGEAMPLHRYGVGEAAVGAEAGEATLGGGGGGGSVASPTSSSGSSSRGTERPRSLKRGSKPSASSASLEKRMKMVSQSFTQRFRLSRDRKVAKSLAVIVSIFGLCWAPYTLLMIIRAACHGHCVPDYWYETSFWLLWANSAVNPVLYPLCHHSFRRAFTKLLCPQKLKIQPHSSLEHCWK

- Ki (Histamine H1 receptor): 1660 nM
- Ki (Histamine H4 receptor): 7480 nM
- Ki (D(2) dopamine receptor): 1970 nM
- Ki (D(1A) dopamine receptor): 12500 nM
- Ki (D(1B) dopamine receptor): 5210 nM
- Ki (Histamine H3 receptor): 6.51 nM
- Ki (D(3) dopamine receptor): 1490 nM
Compound: CC1=CC(C)=[N+]2C1=C(c1ccc(OCCCN3CCCCC3)cc1)c1c(C)cc(C)n1[B-]2(F)F [BODILISANT]
